Experimental data reported in PMC5372986, “Diminished Antimicrobial Peptide and Antifungal Antibiotic Activities against Candida albicans in Denture Adhesive” (Antibiotics, 2017).
≈ marks a conversion by molar mass, not a printed value. Like-named read-outs stand apart in the source and are kept apart here.

Key:
C. albicans ATCC 64124 = experiment: microbe, parasite or virus in culture; conditions: for Minimal inhibitory concentration (MIC) / Activity in gels with 1.0% denture adhesive compared with gels without: C. albicans ATCC 64124; for Activity in gels with 1.0% denture adhesive compared with gels without: result in words, Tukey HSD, 0.05 level; for MIC: Candida albicans
Description: (§1) C. albicans strains ATCC 64124 and HMV4C were used and cultivated as previously described. Their identities were verified (State Hygienic Laboratory, University of Iowa Research Park, Coralville, IA, USA). These cultures were adjusted to contain 1.2–3.7 × 10^6 CFU/mL in Roswell Park Memorial Institute (RPMI) 1640 medium.
(§2) The denture adhesive used was a standard, over-the-counter gel containing poly sodium-calcium mixed partial salt, petrolatum, cellulose gum, and mineral oil and was prepared as previously described. Denture adhesive was too viscous to use directly and was diluted to 1.0% for incorporation into the radial diffusion assay.
(§3) Each agent was reconstituted in distilled water with 0.01% acetic acid for resuspension to keep the agent in solution. Two-fold dilutions were prepared.
(§4) The radial diffusion assays were performed as described with the following unique modifications. Underlay agarose gels were prepared with and without 1.0% denture adhesive in square petri dishes (Electron Microscopy Sciences, Hatfield, PA, USA). Plates without 1.0% adhesive contained 12.5 mL of 10.0 mM sodium phosphate buffer adjusted to pH 7.4, 12.5 mL of 2.0% agarose (Agarose LE, Roche Diagnostics Corporation, Indianapolis, IN, USA) in 10.0 mM sodium phosphate adjusted to pH 7.4, and 1.0 mL of C. albicans culture per plate. Plates with 1.0% adhesive contained 12.5 mL of 2.0% dental adhesive in 10.0 mM sodium phosphate adjusted to pH 7.4, 12.5 mL 2.0% agarose (Agarose LE, Roche Diagnostics Corporation, Indianapolis, IN, USA) in 10.0 mM sodium phosphate adjusted to pH 7.4, and 1.0 mL of C. albicans culture. Wells of 2.0 mm in diameter were created and filled with 5.0 µL of AMP or antifungal antibiotic dilution (n = three replications per test). A blank of 0.01% acetic acid in distilled water was also included. The plates were incubated at 37 °C for 3 h. After incubation, 10.0 mL of overlay containing 1.0% agarose in 10.0 mM phosphate buffer with 6.0% RPMI 1640, was added to each plate. The plates were incubated at 37 °C overnight. At 24 h, antimicrobial activity was determined by measuring the zone of clearance around the center of each well and extrapolating MIC as described.
(§5) When MICs fell outside the range of the assay, we considered the MIC to be equal to the highest concentration used in the assay. […] One-way fixed-effects ANOVA models were fit to the µM MIC values. Pairwise group comparisons were conducted using the method of Tukey’s Honest Significant Differences (HSD). A 0.05 level was used to determine statistically significant differences. All analyses were conducted using JMP (Version 10.0, SAS, Cary, NC, USA).

C. albicans HMV4C = experiment: microbe, parasite or virus in culture; conditions: radial diffusion; for Minimal inhibitory concentration (MIC) / Activity in gels with 1.0% denture adhesive compared with gels without: C. albicans HMV4C; for Minimal inhibitory concentration (MIC) / MIC: mean (standard error, n = 3); for Activity in gels with 1.0% denture adhesive compared with gels without: result in words, Tukey HSD, 0.05 level; for MIC: Candida albicans, HMV4C
Description: as §1, §2, §3, §4, §5

Candida albicans = conditions: broth microdilution, p < 0.05; cited from earlier work
Text: Candida species infections can cause complications for individuals with dentures, such as denture stomatitis.

[1] = Adhesive (1.0% denture adhesive in gel), radial diffusion, pH 7.4, 37 °C, read at 24 h, mean (standard error, n = 3)
[2] = Adhesive (1.0% denture adhesive in gel), radial diffusion, mean (standard error, n = 3)
[3] = No Adhesive, radial diffusion, pH 7.4, 37 °C, read at 24 h, mean (standard error, n = 3)
[4] = No Adhesive, radial diffusion, mean (standard error, n = 3)
[5] = Adhesive (1.0% denture adhesive in gel), pH 7.4, 37 °C, read at 24 h
[6] = Adhesive (1.0% denture adhesive in gel)
[7] = No Adhesive, agarose in 10.0 mM sodium phosphate pH 7.4, 37 °C, read at 24 h
[8] = ATCC64124, 24 h, pH 7.4, read-out: Minimal inhibitory concentration (MIC), C. albicans ATCC 64124, Adhesive (1.0% denture adhesive in gel), radial diffusion, pH 7.4, 37 °C, read at 24 h, mean (standard error, n = 3)
[9] = ATCC64124, 24 h, pH 7.4, read-out: Minimal inhibitory concentration (MIC), C. albicans ATCC 64124, No Adhesive, radial diffusion, pH 7.4, 37 °C, read at 24 h, mean (standard error, n = 3)
[10] = ATCC64124, read-out: Minimal inhibitory concentration (MIC), C. albicans ATCC 64124, Adhesive (1.0% denture adhesive in gel), radial diffusion, mean (standard error, n = 3)
[11] = ATCC64124, read-out: Minimal inhibitory concentration (MIC), C. albicans ATCC 64124, No Adhesive, radial diffusion, mean (standard error, n = 3)
[12] = 24 h, pH 7.4, read-out: Minimal inhibitory concentration (MIC), C. albicans HMV4C, Adhesive (1.0% denture adhesive in gel), pH 7.4, 37 °C, read at 24 h
[13] = 24 h, pH 7.4, read-out: Minimal inhibitory concentration (MIC), C. albicans HMV4C, No Adhesive, agarose in 10.0 mM sodium phosphate pH 7.4, 37 °C, read at 24 h
[14] = read-out: Minimal inhibitory concentration (MIC), C. albicans HMV4C, Adhesive (1.0% denture adhesive in gel)
[15] = read-out: Minimal inhibitory concentration (MIC), C. albicans HMV4C, No Adhesive

SMILES: N=C(NCCCCCCNC(=N)NC(=N)Nc1ccc(Cl)cc1)NC(=N)Nc1ccc(Cl)cc1.O=C(O)[C@H](O)[C@@H](O)[C@H](O)[C@H](O)CO.O=C(O)[C@H](O)[C@@H](O)[C@H](O)[C@H](O)CO [Chlorhexidine gluconate]
- Minimal inhibitory concentration (MIC) (C. albicans ATCC 64124; [1]): 81.6 (3.2) µg/mL
- Minimal inhibitory concentration (MIC) (C. albicans ATCC 64124; [2]): 90.9 (3.6) µM
- Minimal inhibitory concentration (MIC) (C. albicans ATCC 64124; [3]): 4.1 (0.2) µg/mL
- Minimal inhibitory concentration (MIC) (C. albicans ATCC 64124; [4]): 4.6 (0.2) µM
- Activity in gels with 1.0% denture adhesive compared with gels without (C. albicans ATCC 64124; radial diffusion): diminished antimicrobial activity
- Minimal inhibitory concentration (MIC) (C. albicans HMV4C; [5]): 0.7 (0.4) µg/mL
- Minimal inhibitory concentration (MIC) (C. albicans HMV4C; [6]): 0.8 (0.4) µM
- Minimal inhibitory concentration (MIC) (C. albicans HMV4C; [7]): 6.3 (0.1) µg/mL
- Minimal inhibitory concentration (MIC) (C. albicans HMV4C; No Adhesive): 7.0 (0.1) µM
- Activity in gels with 1.0% denture adhesive compared with gels without (C. albicans HMV4C): same antimicrobial activity
- Loss of antimicrobial activity in 1.0% denture adhesive (Candida albicans): did not

SMILES: C[C@@H]1[C@H](O)[C@@H](C)/C=C/C=C/CC/C=C/C=C/C=C/C=C/C(O[C@H]2O[C@H](C)[C@@H](O)[C@H](N)[C@@H]2O)CC2O[C@](O)(CC(O)C(O)CCC(O)CC(O)CC(O)CC(=O)O[C@H]1C)CC(O)C2C(=O)O (stereo partly shown) [Nystatin]
- Minimal inhibitory concentration (MIC) (C. albicans ATCC 64124; [1]): 61.0 (2.5) µg/mL
- Minimal inhibitory concentration (MIC) (C. albicans ATCC 64124; [2]): 65.9 (2.7) µM
- Minimal inhibitory concentration (MIC) (C. albicans ATCC 64124; [3]): 9.7 (0.2) µg/mL
- Minimal inhibitory concentration (MIC) (C. albicans ATCC 64124; [4]): 10.5 (0.2) µM
- Activity in gels with 1.0% denture adhesive compared with gels without (C. albicans ATCC 64124; radial diffusion): diminished
- Minimal inhibitory concentration (MIC) (C. albicans HMV4C; [5]): 137.2 (8.2) µg/mL
- Minimal inhibitory concentration (MIC) (C. albicans HMV4C; [6]): 148.1 (8.9) µM
- Minimal inhibitory concentration (MIC) (C. albicans HMV4C; [7]): 9.4 (0.2) µg/mL
- Minimal inhibitory concentration (MIC) (C. albicans HMV4C; No Adhesive): 10.2 (0.2) µM
- Activity in gels with 1.0% denture adhesive compared with gels without (C. albicans HMV4C): diminished
- Loss of antimicrobial activity in 1.0% denture adhesive (Candida albicans): did not

SMILES: OC(Cn1cncn1)(Cn1cncn1)c1ccc(F)cc1F [Fluconazole]
- Minimal inhibitory concentration (MIC) (C. albicans ATCC 64124; in both gels with or without 1.0% denture adhesive): 3265.1 µM (≈ 1000 µg/mL)
- Activity in gels with 1.0% denture adhesive compared with gels without (C. albicans ATCC 64124; radial diffusion): same
- MIC (C. albicans ATCC 64124; [8]): > 1000 µg/mL
- MIC (C. albicans ATCC 64124; [9]): > 1000 µg/mL
- MIC (C. albicans ATCC 64124; [10]): > 3270 µM
- MIC (C. albicans ATCC 64124; [11]): > 3270 µM
- MIC (C. albicans ATCC 64124; ATCC64124, read-out: Minimal inhibitory concentration (MIC), C. albicans ATCC 64124, in both gels with or without 1.0% denture adhesive): > 1000 µg/mL
- Activity in gels with 1.0% denture adhesive compared with gels without (C. albicans HMV4C): same
- MIC (C. albicans HMV4C; [12]): 8.1 µg/mL
- MIC (C. albicans HMV4C; [13]): 3.9 µg/mL
- MIC (C. albicans HMV4C; [14]): 26.4 µM
- MIC (C. albicans HMV4C; [15]): 12.7 µM
- Loss of antimicrobial activity in 1.0% denture adhesive (Candida albicans): did not

SMILES: CC[C@H](C)[C@@H]1NC(=O)[C@H](CO)NC(=O)[C@@H]2CCCN2C(=O)[C@H](C)NC(=O)CNC(=O)[C@H](CC(C)C)NC(=O)[C@H](CCCCN)NC(=O)[C@H](CCCCN)NC(=O)[C@H](CCSC)NC(=O)[C@H](CCCNC(=N)N)NC(=O)[C@H](Cc2c[nH]c3ccccc23)NC(=O)[C@H](CCC(N)=O)NC(=O)[C@H](Cc2c[nH]c3ccccc23)NC(=O)[C@H](CCCNC(=N)N)NC(=O)[C@H](CCCNC(=N)N)NC(=O)[C@@H](NC(=O)[C@H](CCCCN)NC(=O)[C@@H](N)Cc2ccccc2)CSSC[C@@H](C(=O)N[C@H](C(=O)N[C@@H](CCCNC(=N)N)C(=O)N[C@@H](CCCNC(=N)N)C(=O)N[C@@H](C)C(=O)N[C@@H](Cc2ccccc2)C(=O)O)C(C)C)NC(=O)[C@H]([C@@H](C)O)NC1=O [Lactoferricin B]
- Activity in gels with 1.0% denture adhesive compared with gels without (C. albicans ATCC 64124; radial diffusion): diminished activity
- Activity in gels with 1.0% denture adhesive compared with gels without (C. albicans HMV4C): diminished activity
- Loss of antimicrobial activity in 1.0% denture adhesive (Candida albicans): lost antimicrobial activity

SMILES: C[C@@H]1[C@H](O)[C@@H](C)/C=C/C=C/C=C/C=C/C=C/C=C/C=C/[C@H](O[C@@H]2O[C@H](C)[C@@H](O)[C@H](N)[C@@H]2O)C[C@@H]2O[C@](O)(C[C@@H](O)C[C@@H](O)[C@H](O)CC[C@@H](O)C[C@@H](O)CC(=O)O[C@H]1C)C[C@H](O)[C@H]2C(=O)O [Amphotericin B]
- Activity in gels with 1.0% denture adhesive compared with gels without (C. albicans ATCC 64124; radial diffusion): same
- MIC (C. albicans ATCC 64124; [8]): 16.6 µg/mL
- MIC (C. albicans ATCC 64124; [9]): 6 µg/mL
- MIC (C. albicans ATCC 64124; [10]): 18 µM
- MIC (C. albicans ATCC 64124; [11]): 6.5 µM
- Activity in gels with 1.0% denture adhesive compared with gels without (C. albicans HMV4C): same
- MIC (C. albicans HMV4C; [12]): 6.2 µg/mL
- MIC (C. albicans HMV4C; [13]): 5.4 µg/mL
- MIC (C. albicans HMV4C; [14]): 6.7 µM
- MIC (C. albicans HMV4C; [15]): 5.8 µM
- Loss of antimicrobial activity in 1.0% denture adhesive (Candida albicans): did not
